These results are taken from PMC6268855, “New Trifluoromethyl Triazolopyrimidines as Anti-Plasmodiumfalciparum Agents” (Molecules, 2012).

Holding throughout (assay type): cell-based
For data set [1], the system named is Plasmodium falciparum chloroquine-resistant W2 clone. Nature of the data set: anti-HRP2 test on P. falciparum-infected erythrocytes. As to conditions: W2 clone; for IC50: Plasmodium falciparum, Erythrocyte, 0.05% parasitemia, 1.5% hematocrit, read-out: IC50 Plasmodium Falciparum Anti-HRP2; for activity class against P. falciparum: class by IC50. As for the experimental part: (§1) Briefly, the parasites were kept as described at 37 °C in human erythrocytes (A^+) in complete medium (RPMI 1640 supplemented with 10% human sera blood group A^+, 2% glutamine, and 7.5% NaHCO3) either in Petri dishes in a candle jar or in 25-cm culture flasks in an environment containing a gas mixture atmosphere (3% O2, 5% CO2 and 91% N2). Before testing, the ring-stage parasites were synchronized by sorbitol; the suspension was adjusted for parasitemia and hematocrit as described below for each test used.
(§2) The effects of compounds against the W2 P. falciparum blood cultures were evaluated through incorporation of ^3H hypoxanthine (Perkin Elmer, Waltham, MA, USA) by the parasites. Alternatively, compound effects were also examined using monoclonal antibodies to a commercially available parasite histidine and alanine-rich protein (HRP2) (MPFM ICLLAB-55A®, MPFG55P ICLLAB®, Immunology Consultants Laboratory Inc. (ICL), Portland, OR, USA), as described previously. The [3H]-hypoxanthine assay was performed with 1% of parasitemia and 1% of hematocrit, and the level of isotope incorporation was read in a beta-counter (Perkin Elmer). The anti-HRP2 test was performed with 0.05% parasitemia and 1.5% hematocrit, and the quantification of protein was determined using a specific read at 450 nm in a spectrophotometer (SpectraMax340PC^384, Molecular Devices, Sunnyvale, CA, USA). Drug activities were expressed by the half-maximal inhibitory dose (IC50) compared to the drug-free controls and estimated using the curve-fitting software Origin 8.0 (OriginLab Corporation, Northampton, MA, USA).

Data set [2] concerns human hepatoma cell line (HepG2). Particulars: MTT, 24 h incubation. Here is the method:
For in vitro cytotoxicity experiments, the cell monolayer was trypsinized, washed with culture medium, distributed in a flat-bottomed 96-well plate (5 × 10^3 cells/well), and finally incubated for 18 h at 37 °C for cell adherence.
For cytotoxicity testing, we used the (3-(4,5-dimethylthiazol-2-yl)-2,5-diphenyltetrazolium bromide (MTT) assay, performed as described in the literature. The HepG2 cell line was incubated with 20 µL of the compounds in different concentrations (200–25 µg/mL) for 24 h in an atmosphere of 5% CO2 at 37 °C.
For the MTT assay, which evaluates mitochondrial viability, 20 µL of MTT solution (5 mg/mL) was added, and the plates were incubated for an additional 3 h. After incubation, the supernatant was carefully removed from the wells, followed by addition of 100 µL DMSO with thorough mixing. Optical densities at 570 and 630 nm (background) were determined by an ELISA reader.
Cell viability was expressed as the percentage of control absorbance obtained in untreated cells after subtracting the absorbance from appropriate background. Lastly, the minimum lethal dose for 50% of the cells (MLD50) was determined as previously described in the literature. The ratio between MLD50 and drug activity (IC50) in vitro was used to determine the selectivity index (SI).

Data set [3] concerns Plasmodium falciparum chloroquine-resistant W2 clone. Nature of the data set: [3H]-hypoxanthine incorporation assay on P. falciparum-infected erythrocytes. As to conditions: Erythrocyte, W2 clone, 1% parasitemia, 1% hematocrit, read-out: IC50 Plasmodium Falciparum Hypoxanthine. Here is the method: as §1, §2

Each structure is given as a SMILES string.

In general, IC50 refers to the midpoint of a concentration-inhibition curve.

As to `Cc1cc(Nc2c(F)cccc2F)n2nc(C(F)(F)F)nc2n1` [Compound 10, 7-(2,6-Difluorophenylamine)-5-methyl-2-(trifluoromethyl)[1,2,4]triazolo[1,5-a]pyrimidine], in data set [1], the IC50 was above 69.9 µM and the “activity class against P. falciparum” value is “Inactive”. Further, in data set [2], the “MDL50 HepG2” value came out at 337 µM. Besides, the IC50 in data set [3] is above 149 µM.
The corresponding values for `Cc1cc(Nc2cc(Cl)cc(Cl)c2)n2nc(C)nc2n1` [Compound 15, 7-(3,5-Dichlorophenylamine)-2,5-dimethyl[1,2,4]triazolo[1,5-a]pyrimidine] are above 162 µM, “Inactive”, 415 µM and 149 µM.
The corresponding values for `Cc1cc(-n2cncn2)n2nc(C(F)(F)F)nc2n1` [Compound 26, 5-Methyl-7-(1H-1,2,4-triazol-1-yl)-2-(trifluoromethyl)[1,2,4]triazolo[1,5-a]pyrimidine] are 29.7 µM, “Inactive”, below 93 µM and 33.5 ± 14.9 µM.
The corresponding values for `Cc1cc(N2CCCC2)n2nc(C(F)(F)F)nc2n1` [Compound 21, 5-Methyl-7-(pyrrolidin-1-yl)-2-(trifluoromethyl)[1,2,4]triazolo[1,5-a]pyrimidine] are above 184 µM, “Inactive”, above 738 µM and above 184 µM.
Consider `Cc1cc(Nc2ccc(C(F)(F)F)cc2)n2nc(C)nc2n1` [Compound 16, 2,5-Dimethyl-7-(4-(trifluoromethyl)phenylamine)-[1,2,4]triazolo[1,5-a]pyrimidine], for which the IC50 amounted to 0.3 µM in data set [1] and 0.4 ± 0.06 µM in data set [3]. The “MDL50 HepG2” value in data set [2] is recorded as 446 µM.
